Laboratory results: patent publication US10105367B2, “Therapeutic thiophene-, furan-, and pyridine-fused azolopyrimidin-5-(6h)-ones” (Dart Neuroscience (Cayman) Ltd., priority 2012, dated 2018)

Molecular target: human PDE1B (Homo sapiens (Human), UniProt Q01064)
Test: PDE1B inhibitory assay (IMAP TR-FRET)
Settings: 200 nM FAM-cAMP, Calmodulin, CaCl2; for IC50: PDE1B pIC50, negative log of half-maximal molar inhibitory concentration; for PDE1B pIC50: negative log of half-maximal molar inhibitory concentration
Method: PDE1B inhibition was determined by an IMAP TR-FRET assay.
After a brief centrifugation, the plates were incubated for 30 minutes at room temperature. The assay was terminated by adding 5 μL IMAP binding reagent/Tb complex (Molecular Devices, Sunnyvale, Calif.) to each well.
Plates were incubated 1 hour at room temperature and read on a Viewlux multimode plate reader (Perkin Elmer). The instrument was set to excite using the DUG11 filter and measure using 490/10 nm and 520/10 nm filters. Ratios of acceptor and donor were then calculated.
For IC50 calculations, the values of % efficacy versus a series of compound concentrations were then plotted using non-linear regression analysis of sigmoidal dose-response curves generated with the equation Y=B+(T−B)/1+10((Log EC50−X)×Hill Slope), where Y=percent activity, B=minimum percent efficacy, T=maximum percent efficacy, X=logarithm of compound and Hill Slope=slope factor or Hill coefficient. The IC50 value was determined by the concentration causing a half-maximal percent efficacy.

Row | SMILES | IC50 [µM] | PDE1B pIC50
1 | O=c1n(Cc2ccccc2Cl)c2sccc2c2ncnn12 [Example 1, 6-(2-Chlorobenzyl)thieno[3,2-e][1,2,4]triazolo[1,5-c]pyrimidin-5(6H)-one] | 1 to 10 | 
2 | O=c1n(Cc2cccc(Cl)c2)c2sccc2c2ncnn12 [Example 2] | 1 to 10 | 
3 | Cc1csc2c1c1ncnn1c(=O)n2Cc1ccc(Cl)cc1 [Example 3] | 0.1 to 1 | 
4 | O=c1n(Cc2ccc(-c3ccccc3)cc2)c2sccc2c2ncnn12 [Example 4] |  | <5
5 | O=c1n(Cc2ccc(Cl)cc2)c2sccc2c2ncnn12 [Example 5] | 0.1 to 1 | 
6 | Cc1csc2c1c1ncnn1c(=O)n2Cc1ccccc1 [Example 6] | 0.1 to 1 | 
7 | Cc1csc2c1c1ncnn1c(=O)n2Cc1ccc(-c2ccccc2)cc1 [Example 7] |  | <5
8 | O=c1n(Cc2ccccc2Cl)c2sc(Cc3ccccc3)cc2c2ncnn12 [Example 8] | 0.1 to 1 | 
9 | O=c1n(Cc2cccc(Cl)c2)c2sc(Cc3ccccc3)cc2c2ncnn12 [Example 9] | 0.1 to 1 | 
10 | Cc1csc2c1c1ncnn1c(=O)n2Cc1ccccc1Cl [Example 10] | 1 to 10 | 
11 | Cc1csc2c1c1ncnn1c(=O)n2Cc1cccc(Cl)c1 [Example 11] | 0.1 to 1 | 
12 | Cc1cc2c(s1)n(Cc1ccccc1)c(=O)n1ncnc21 [Example 12] | 1 to 10 | 
13 | Cc1cc2c(s1)n(Cc1ccccc1Cl)c(=O)n1ncnc21 [Example 13] | 1 to 10 | 
14 | Cc1cc2c(s1)n(Cc1ccc(-c3ccccc3)cc1)c(=O)n1ncnc21 [Example 14] |  | <5
15 | Cc1cc2c(s1)n(Cc1ccc(Cl)cc1)c(=O)n1ncnc21 [Example 15] | 0.1 to 1 | 
16 | Cc1cc2c(s1)n(Cc1cccc(Cl)c1)c(=O)n1ncnc21 [Example 16] | 1 to 10 | 
17 | O=c1n(Cc2ccccc2)c2sc(Cc3ccccc3)cc2c2ncnn12 [Example 17] | 0.1 to 1 | 
18 | O=c1n(Cc2ccc(-c3ccccc3)cc2)c2sc(Cc3ccccc3)cc2c2ncnn12 [Example 18] | 1 to 10 | 
19 | CC(C)CCc1cc2c(s1)n(Cc1ccccc1Cl)c(=O)n1ncnc21 [Example 19] | 1 to 10 | 
20 | CC(C)CCc1cc2c(s1)n(Cc1cccc(Cl)c1)c(=O)n1ncnc21 [Example 20] | 1 to 10 | 

Row | SMILES | IC50 [µM] | PDE1B pIC50
21 | CC(C)CCc1cc2c(s1)n(Cc1ccc(-c3ccccc3)cc1)c(=O)n1ncnc21 [Example 21] |  | <5
22 | O=c1n(Cc2ccc(Cl)cc2)c2sc(Cc3ccccc3)cc2c2ncnn12 [Example 22] | 0.1 to 1 | 
23 | CC(C)CCc1cc2c(s1)n(Cc1ccc(Cl)cc1)c(=O)n1ncnc21 [Example 23] | 0.1 to 1 | 
24 | O=c1n(Cc2ccccc2)c2sccc2c2ncnn12 [Example 24] | 1 to 10 | 
25 | CC(C)CCc1cc2c(s1)n(Cc1ccccc1)c(=O)n1ncnc21 [Example 25] | 0.1 to 1 | 
26 | Cc1sc2c(c1C)c1ncnn1c(=O)n2Cc1ccc(Cl)cc1 [Example 26] | 0.1 to 1 | 
27 | COc1ccc(Cn2c(=O)n3ncnc3c3ccsc32)cc1 [Example 27] | 0.1 to 1 | 
28 | COc1ccc(Cn2c(=O)n3ncnc3c3c(C)csc32)cc1 [Example 28] | 0.1 to 1 | 
29 | COc1ccc(Cn2c(=O)n3ncnc3c3cc(CN4CCCOCC4)sc32)cc1 [Example 29, 8-((1,4-Oxazepan-4-yl)methyl)-6-(4-methoxybenzyl)thieno[3,2-e][1,2,4]triazolo[1,5-c]pyrimidin-5(6H)-one] |  | >7
30 | COc1ccc(Cn2c(=O)n3ncnc3c3cc(CN(C)C)sc32)cc1 [Example 30] | 0.1 to 1 | 
31 | COc1ccc(Cn2c(=O)n3ncnc3c3cc(CN4CCOCC4)sc32)cc1 [Example 31] |  | >7
32 | COc1ccc(Cn2c(=O)n3ncnc3c3cc(CN4CCN(C)CC4)sc32)cc1 [Example 32] | 0.1 to 1 | 
33 | COc1ccc(Cn2c(=O)n3ncnc3c3cc(CN4C[C@@H](C)O[C@@H](C)C4)sc32)cc1 [Example 33] |  | >7
34 | CCN1CCN(Cc2cc3c(s2)n(Cc2ccc(OC)cc2)c(=O)n2ncnc32)CC1=O [Example 34] |  | >7
35 | COc1ccc(Cn2c(=O)n3ncnc3c3cc(CN4CCN(S(C)(=O)=O)CC4)sc32)cc1 [Example 35] |  | >7
36 | COc1ccc(Cn2c(=O)n3ncnc3c3cc(CN4CCOC(C)(C)C4)sc32)cc1 [Example 36] |  | >7
37 | COc1ccc(Cn2c(=O)n3ncnc3c3cc(CN4CC5CC4CO5)sc32)cc1 (stereo not shown) [Example 37] |  | >7
38 | COc1ccc(Cn2c(=O)n3ncnc3c3cc(CN4CC5(CCOCC5)C4)sc32)cc1 [Example 38] |  | >7
39 | COc1ccc(Cn2c(=O)n3ncnc3c3cc(CN4CCC5(CC4)COC5)sc32)cc1 [Example 39] |  | >7
40 | COc1ccc(Cn2c(=O)n3ncnc3c3cc(CN4CCN5C(=O)OCC5C4)sc32)cc1 (stereo not shown) [Example 40] |  | >7

Row | SMILES | IC50 [µM] | PDE1B pIC50
41 | COc1ccc(Cn2c(=O)n3ncnc3c3cc(-c4cc(C(F)(F)F)nn4C)sc32)cc1 [Example 41, 6-(4-Methoxybenzyl)-8-(1-methyl-3-(trifluoromethyl)-1H-pyrazol-5-yl)thieno[3,2-e][1,2,4]triazolo[1,5-c]pyrimidin-5(6H)-one] |  | >7
42 | COc1ccc(Cn2c(=O)n3ncnc3c3cc(-c4c(C)noc4C)sc32)cc1 [Example 42] | 0.1 to 1 | 
43 | COc1ccc(Cn2c(=O)n3ncnc3c3c(C)c(CN4CCCC4)sc32)cc1 [Example 43, 6-(4-Methoxybenzyl)-9-methyl-8-(pyrrolidin-1-ylmethyl)thieno[3,2-e][1,2,4]triazolo[1,5-c]pyrimidin-5(6H)-one] | 0.1 to 1 | 
44 | COc1ccc(Cn2c(=O)n3ncnc3c3c(C)c(CN4CCOCC4)sc32)cc1 [Example 44] |  | >7
45 | COc1ccc(Cn2c(=O)n3ncnc3c3c(C)c(CN(C)C)sc32)cc1 [Example 45] |  | >7
46 | COc1ccc(Cn2c(=O)n3ncnc3c3c(C)c(CN(C)C4CC4)sc32)cc1 [Example 46] |  | >7
47 | COc1ccc(Cn2c(=O)n3ncnc3c3c(C)c(CN4CCC(O)CC4)sc32)cc1 [Example 47] |  | >7
48 | COc1ccc(Cn2c(=O)n3ncnc3c3c(C)c(CN(CCO)Cc4ccccc4)sc32)cc1 [Example 48] |  | >7
49 | COc1ccc(Cn2c(=O)n3ncnc3c3c(C)c(CN4CCNCC4)sc32)cc1 [Example 49] | 0.1 to 1 | 
50 | COc1ccc(Cn2c(=O)n3ncnc3c3c(C)c(CNCC4(C)COC4)sc32)cc1 [Example 50] |  | >7
51 | COc1ccc(Cn2c(=O)n3ncnc3c3c(C)c(CN4CCN(C(C)=O)CC4)sc32)cc1 [Example 51] |  | >7
52 | COc1ccc(Cn2c(=O)n3ncnc3c3c(C)c(CNCc4cccnc4)sc32)cc1 [Example 52] |  | >7
53 | COc1ccc(Cn2c(=O)n3ncnc3c3c(C)c(CN4CCNC(=O)C4)sc32)cc1 [Example 53] |  | >7
54 | COc1ccc(Cn2c(=O)n3ncnc3c3c(C)c(CN(C)CC4CCCO4)sc32)cc1 (stereo not shown) [Example 54] |  | >7
55 | COc1ccc(Cn2c(=O)n3ncnc3c3c(C)c(CN4C[C@@H](C)O[C@@H](C)C4)sc32)cc1 [Example 55] |  | >7
56 | COc1ccc(Cn2c(=O)n3ncnc3c3c(C)c(CN4Cc5ccccc5C4)sc32)cc1 [Example 56] |  | >7
57 | COc1ccc(Cn2c(=O)n3ncnc3c3c(C)c(CNC4CC4)sc32)cc1 [Example 57] |  | >7
58 | COC[C@@H]1CCCN1Cc1sc2c(c1C)c1ncnn1c(=O)n2Cc1ccc(OC)cc1 [Example 58] |  | >7
